This test addresses Inositol hexakisphosphate kinase 1 (Homo sapiens, UniProt Q92551). In words: Not found.
Text: Not found

As a reminder, the IC50 is the midpoint of a concentration-inhibition curve. High values mean weaker potency in that assay, low ones greater potency in that assay.

Sequence of Inositol hexakisphosphate kinase 1 (Q92551 whole entry): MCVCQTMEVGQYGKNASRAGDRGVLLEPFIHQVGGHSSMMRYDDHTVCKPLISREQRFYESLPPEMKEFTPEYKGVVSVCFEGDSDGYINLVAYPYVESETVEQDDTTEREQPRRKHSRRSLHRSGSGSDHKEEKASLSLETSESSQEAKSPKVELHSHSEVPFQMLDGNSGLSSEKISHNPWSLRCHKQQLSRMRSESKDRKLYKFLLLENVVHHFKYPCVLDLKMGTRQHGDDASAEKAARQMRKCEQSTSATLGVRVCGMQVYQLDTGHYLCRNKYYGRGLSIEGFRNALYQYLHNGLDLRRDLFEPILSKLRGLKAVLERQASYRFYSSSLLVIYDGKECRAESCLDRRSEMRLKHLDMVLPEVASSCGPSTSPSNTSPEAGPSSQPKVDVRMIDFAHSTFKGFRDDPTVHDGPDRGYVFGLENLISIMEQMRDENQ

`O=C(O)c1ccc2c(c1)C1(CCN(Cc3ncc(Cl)cc3Cl)CC1)C(=O)N2` [US20250197396, Compound 18a] yielded an IC50 of less than 300 nM.

Values taken from BindingDB's records for patent US20250197396 (Lieber Institute, 2025).
